In the assay the target is T1, c-Met kinase (histidine-tagged c-Met catalytic domain fusion protein) (Homo sapiens, UniProt P08581).
T1 construct: histidine-tagged c-Met catalytic domain fusion protein (Invitrogen, #PV3143) was used for the assay; histidine tag; purchased Invitrogen PV3143
Briefly: In vitro c-Met kinase enzyme assay. Format: biochemical. The note with it: poly Glu-Tyr phosphorylation, 5 μM ATP, 25 minutes at 30° C.; read-out: IC50 for the inhibition of c-Met kinase. The procedure: Compounds were screened in vitro for their ability to inhibit c-Met kinase activity. The IC50 values of compounds for the inhibition of c-Met kinase were determined as described in the literature with some modifications (Wang, X. et al, Mol. Cancer. Ther. 2003, 2(11):1085-1092; Calic, M. et al., Croatica Chemical ACTA. 2005, 78(3):367-374). Briefly, histidine-tagged c-Met catalytic domain fusion protein (Invitrogen, #PV3143) was used for the assay. IC50 measurements were based on the degree of phosphorylation of poly Glu-Tyr (Sigma-Aldrich, #PO275) that was coated (0.01 mg/per well) on 96-well microplates (R&D systems, #DY990). The reaction was carried out in a 50 μL solution containing 50 mM HEPES (pH 7.5), 10 mM MnCl2, 10 mM MgCl2, 0.5 mM DTT, 100 μM Na3VO4, 5 μM ATP (Cell Signaling Technology, #9804) and serial dilutions of individual compounds. The reaction lasted for 25 minutes at 30° C. After the reaction was completed, the contents of the plates was discarded. […] The optical density was measured immediately using a microplate reader at 450 nm with wavelength correction at 540 nm. IC50 values were calculated with the GraphPad Prism software. The linear range (i.e., the time period over which the rate remained equivalent to the initial rate) was determined for the kinase and IC50 determinations were performed within this range. […]

The record followed here is patent US8143251B2, “Triazolotriazines as kinase inhibitors” (Incyte Corporation, priority 2006, dated 2012).

T1 sequence (P08581 1078-1345 limits assumed): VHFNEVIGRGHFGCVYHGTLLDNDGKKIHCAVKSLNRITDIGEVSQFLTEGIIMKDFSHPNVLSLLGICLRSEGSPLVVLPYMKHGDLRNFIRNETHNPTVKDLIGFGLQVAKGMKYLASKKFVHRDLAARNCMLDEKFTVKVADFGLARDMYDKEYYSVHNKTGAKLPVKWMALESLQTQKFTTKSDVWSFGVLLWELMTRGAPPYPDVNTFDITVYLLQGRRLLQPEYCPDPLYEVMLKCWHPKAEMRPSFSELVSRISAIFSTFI

In the case of `COc1ccc(C2(c3nnc4ncc(-c5ccccc5)nn34)CC2)cc1` [Example 26, 3-[1-(4-Methoxyphenyl)cyclopropyl]-6-phenyl[1,2,4]triazolo[4,3-b][1,2,4]triazine], the IC50 (commonly the point on the concentration scale where inhibition reaches its midpoint) amounted to 12.9 nM.
